Results taken from patent US9179678B2, “Substituted [1,2,4]triazoles and substituted tetrazoles as herbicides” (SYNGENTA LIMITED, priority 2012, dated 2015).

Tests used:
Type in all cases: in vivo
[1] = test system: Alopecurus myosuroides (ALOMY); experiment: Post-emergence glasshouse herbicide test; conditions: POST Application, 1000 g/h, after 13 days
In short: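 In this glasshouse post-emergence test, ALOMY plants were cultivated in standard soil for 8 days under controlled conditions (24/16° C. day/night, 14 hours light, 65% humidity). They were then treated with a spray derived from an acetone/water (50:50) formulation with 0.5% Tween 20, grown on with watering twice daily, and rated for percentage damage after 13 days.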

[2] = test system: Amaranthus retoflexus (AMARE); experiment: Post-emergence glasshouse herbicide test; conditions: POST Application, 1000 g/h, after 13 days
[3] = test system: Echinochloa crus-galli (ECHCG); experiment: Post-emergence glasshouse herbicide test; conditions: POST Application, 1000 g/h, after 13 days
[4] = test system: Ipomoea hederacea (IPOHE); experiment: Post-emergence glasshouse herbicide test; conditions: POST Application, 1000 g/h, after 13 days
[5] = test system: Solanum nigrum (SOLNI); experiment: Post-emergence glasshouse herbicide test; conditions: POST Application, 1000 g/h, after 13 days
In short: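 This glasshouse post-emergence herbicide test used Solanum nigrum plants sown in standard soil and cultivated for 8 days under controlled conditions (24/16° C. day/night, 14 hours light, 65% humidity). An aqueous spray from an acetone/water (50:50) solution with 0.5% Tween 20 was applied. Plants were watered twice daily, and damage to each plant was assessed as a percentage 13 days later.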

[6] = test system: Setaria faberi (SETFA); experiment: Post-emergence glasshouse herbicide test; conditions: POST Application, 1000 g/h, after 13 days
In short: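 This post-emergence glasshouse herbicide test used SETFA plants raised in pots of standard soil for 8 days under controlled conditions (24/16° C., 14 hours light, 65% humidity). An aqueous spray made from acetone/water (50:50) with 0.5% Tween 20 was applied. Plants were watered twice daily, and percentage plant damage was assessed 13 days later.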

[7] = test system: Alopecurus myosuroides (ALOMY); experiment: Pre-emergence glasshouse herbicide test; conditions: PRE Application, 1000 g/h, after 13 days
In short: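 This pre-emergence glasshouse test used pots of standard soil sown with ALOMY seed and cultivated for one day under controlled conditions of 24/16° C., 14 hours light and 65% humidity. An aqueous spray from an acetone/water (50:50) formulation with 0.5% Tween 20 was applied. After 13 days of further growth with twice-daily watering, plant damage was rated as a percentage.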

[8] = test system: Amaranthus retoflexus (AMARE); experiment: Pre-emergence glasshouse herbicide test; conditions: PRE Application, 1000 g/h, after 13 days
[9] = test system: Echinochloa crus-galli (ECHCG); experiment: Pre-emergence glasshouse herbicide test; conditions: PRE Application, 1000 g/h, after 13 days
[10] = test system: Ipomoea hederacea (IPOHE); experiment: Pre-emergence glasshouse herbicide test; conditions: PRE Application, 1000 g/h, after 13 days
[11] = test system: Setaria faberi (SETFA); experiment: Pre-emergence glasshouse herbicide test; conditions: PRE Application, 1000 g/h, after 13 days
[12] = test system: Solanum nigrum (SOLNI); experiment: Pre-emergence glasshouse herbicide test; conditions: PRE Application, 1000 g/h, after 13 days

SMILES	percentage damage caused to the plant, ALOMY [1]	percentage damage caused to the plant, AMARE [2]	percentage damage caused to the plant, ECHCG [3]	percentage damage caused to the plant, IPOHE [4]	percentage damage caused to the plant, SOLNI [5]	percentage damage caused to the plant, SETFA [6]	percentage damage caused to the plant, ALOMY [7]	percentage damage caused to the plant, AMARE [8]	percentage damage caused to the plant, ECHCG [9]	percentage damage caused to the plant, IPOHE [10]	percentage damage caused to the plant, SETFA [11]	percentage damage caused to the plant, SOLNI [12]
Cn1nnnc1NC(=O)c1nc2ccccc2n(-c2ccc(OC(F)(F)F)cc2)c1=O [Compound 5.030]	5 (5=80-100%)	5 (5=80-100%)	5 (5=80-100%)	5 (5=80-100%)	5 (5=80-100%)	5 (5=80-100%)	5 (5=80-100%)	5 (5=80-100%)	5 (5=80-100%)	5 (5=80-100%)	5 (5=80-100%)	5 (5=80-100%)
Cn1nnnc1NC(=O)c1nc2ccccc2n(-c2ccc3ccccc3c2)c1=O [Compound 5.031]	1 (1=0-19%)	5 (5=80-100%)	1 (1=0-19%)	3 (3=40-59%)	5 (5=80-100%)	1 (1=0-19%)	1 (1=0-19%)	5 (5=80-100%)	1 (1=0-19%)	1 (1=0-19%)	1 (1=0-19%)	5 (5=80-100%)
Cn1nnnc1NC(=O)c1nc2ccccc2n(-c2ccc(Br)cc2)c1=O [Compound 5.032]	2 (2=20-39%)	5 (5=80-100%)	3 (3=40-59%)	5 (5=80-100%)	5 (5=80-100%)	5 (5=80-100%)	4 (4=60-79%)	5 (5=80-100%)	4 (4=60-79%)	5 (5=80-100%)	5 (5=80-100%)	5 (5=80-100%)
COc1ccc(-n2c(=O)c(C(=O)Nc3nnnn3C)nc3ccccc32)cc1F [Compound 5.033]	1 (1=0-19%)	5 (5=80-100%)	5 (5=80-100%)	5 (5=80-100%)	5 (5=80-100%)	4 (4=60-79%)	2 (2=20-39%)	5 (5=80-100%)	5 (5=80-100%)	5 (5=80-100%)	1 (1=0-19%)	5 (5=80-100%)
Cc1ccccc1-n1c(=O)c(C(=O)Nc2nnnn2C)nc2ccccc21 [Compound 5.034]	4 (4=60-79%)	5 (5=80-100%)	5 (5=80-100%)	5 (5=80-100%)	5 (5=80-100%)	5 (5=80-100%)	5 (5=80-100%)	5 (5=80-100%)	5 (5=80-100%)	5 (5=80-100%)	5 (5=80-100%)	5 (5=80-100%)
Cn1nnnc1NC(=O)c1nc2ccccc2n(-c2ccc(Cl)c(Cl)c2)c1=O [Compound 5.035]	2 (2=20-39%)	5 (5=80-100%)	2 (2=20-39%)	5 (5=80-100%)	5 (5=80-100%)	4 (4=60-79%)	3 (3=40-59%)	5 (5=80-100%)	2 (2=20-39%)	5 (5=80-100%)	5 (5=80-100%)	5 (5=80-100%)
